Experimental data taken from ChEMBL document CHEMBL1909046, “DrugMatrix in vitro pharmacology data”.

What was measured:
[1] = biological target: T1, C-X-C chemokine receptor type 2 (Homo sapiens, UniProt P25025); assay type: cell membranes, Membrane; settings: cho-k1; further: in other assays of this panel Not Active means under 50% inhibition at 10 µM
T1 sequence (P25025 whole entry): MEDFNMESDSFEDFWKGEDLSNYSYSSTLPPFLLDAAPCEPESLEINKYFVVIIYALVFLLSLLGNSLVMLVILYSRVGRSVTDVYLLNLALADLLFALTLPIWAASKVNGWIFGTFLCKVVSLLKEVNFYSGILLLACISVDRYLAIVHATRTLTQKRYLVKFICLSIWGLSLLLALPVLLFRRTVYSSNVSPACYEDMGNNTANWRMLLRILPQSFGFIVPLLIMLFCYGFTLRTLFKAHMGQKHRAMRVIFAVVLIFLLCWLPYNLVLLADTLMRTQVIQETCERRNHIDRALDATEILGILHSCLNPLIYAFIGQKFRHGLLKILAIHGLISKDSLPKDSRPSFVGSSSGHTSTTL

D(4) dopamine receptor = biological target: T2, D(4) dopamine receptor (Homo sapiens, UniProt P21917); assay: DRUGMATRIX: Dopamine D4.2 radioligand binding (ligand: [3H] Spiperone); assay type: cell membranes, CHO-K1, Membrane; settings: cho-k1; Not Active = under 50% inhibition at 10 µM
T2 sequence (P21917 whole entry): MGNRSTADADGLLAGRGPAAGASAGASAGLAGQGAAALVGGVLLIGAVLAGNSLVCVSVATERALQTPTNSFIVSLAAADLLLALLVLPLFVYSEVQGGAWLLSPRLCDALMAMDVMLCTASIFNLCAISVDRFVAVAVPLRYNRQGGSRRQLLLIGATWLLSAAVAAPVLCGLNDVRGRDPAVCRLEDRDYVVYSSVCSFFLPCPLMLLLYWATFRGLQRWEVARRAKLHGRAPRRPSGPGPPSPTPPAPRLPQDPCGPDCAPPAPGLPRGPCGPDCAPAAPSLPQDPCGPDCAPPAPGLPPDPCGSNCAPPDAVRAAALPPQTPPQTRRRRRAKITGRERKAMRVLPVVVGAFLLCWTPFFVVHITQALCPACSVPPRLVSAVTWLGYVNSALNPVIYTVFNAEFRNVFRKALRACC

Endothelin-1 receptor = biological target: T3, Endothelin-1 receptor (Homo sapiens, UniProt P25101); assay type: cell membranes, CHO-K1, Membrane; settings: cho-k1; further: in other assays of this panel Not Active means under 50% inhibition at 10 µM
T3 sequence (P25101 whole entry): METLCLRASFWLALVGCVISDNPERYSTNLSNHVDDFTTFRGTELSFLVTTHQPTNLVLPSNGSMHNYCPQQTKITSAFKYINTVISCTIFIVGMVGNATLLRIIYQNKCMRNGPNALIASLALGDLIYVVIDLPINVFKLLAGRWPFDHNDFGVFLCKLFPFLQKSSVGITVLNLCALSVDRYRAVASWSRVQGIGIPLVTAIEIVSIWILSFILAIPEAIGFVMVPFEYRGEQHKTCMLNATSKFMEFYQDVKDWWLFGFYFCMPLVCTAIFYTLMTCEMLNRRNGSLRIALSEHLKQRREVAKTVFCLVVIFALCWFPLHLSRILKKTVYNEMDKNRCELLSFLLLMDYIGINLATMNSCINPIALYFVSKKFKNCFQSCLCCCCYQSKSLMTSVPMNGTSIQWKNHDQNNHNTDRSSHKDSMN

[2] = DRUGMATRIX: GABAA, Muscimol, Central radioligand binding (ligand: [3H] Muscimol); assay type: cell membranes, Rattus norvegicus, Wistar, Brain, Membrane; settings: Not Active = under 50% inhibition at 10 µM
Melanocortin receptor 4 = Melanocortin receptor 4 (Homo sapiens, UniProt P32245); assay type: cell membranes, Membrane; settings: hek293; further: in other assays of this panel Not Active means under 50% inhibition at 10 µM
Chain of Melanocortin receptor 4 (P32245 whole entry): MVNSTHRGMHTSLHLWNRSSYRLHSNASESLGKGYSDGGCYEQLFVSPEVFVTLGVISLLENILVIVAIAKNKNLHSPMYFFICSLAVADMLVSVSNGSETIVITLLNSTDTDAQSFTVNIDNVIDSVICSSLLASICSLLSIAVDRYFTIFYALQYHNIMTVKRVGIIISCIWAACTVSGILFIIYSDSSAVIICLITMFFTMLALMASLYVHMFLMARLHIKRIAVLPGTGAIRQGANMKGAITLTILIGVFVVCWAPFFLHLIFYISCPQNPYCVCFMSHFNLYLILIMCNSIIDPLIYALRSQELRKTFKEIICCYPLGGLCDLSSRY

Carbonic anhydrase 2 = Carbonic anhydrase 2 (Homo sapiens, UniProt P00918); assay: DRUGMATRIX: Carbonic Anhydrase II enzyme inhibition (substrate: 4-Nitrophenyl acetate (4-NPA)); assay type: tissue-based, Erythrocyte; settings: erythrocyte; Not Active = under 50% inhibition at 10 µM
Cytochrome P450 2D6 = Cytochrome P450 2D6 (Homo sapiens, UniProt P10635); settings: bti-tn-5b1-4; further: in other assays of this panel Not Active means under 50% inhibition at 10 µM
Chain of Cytochrome P450 2D6 (P10635 whole entry): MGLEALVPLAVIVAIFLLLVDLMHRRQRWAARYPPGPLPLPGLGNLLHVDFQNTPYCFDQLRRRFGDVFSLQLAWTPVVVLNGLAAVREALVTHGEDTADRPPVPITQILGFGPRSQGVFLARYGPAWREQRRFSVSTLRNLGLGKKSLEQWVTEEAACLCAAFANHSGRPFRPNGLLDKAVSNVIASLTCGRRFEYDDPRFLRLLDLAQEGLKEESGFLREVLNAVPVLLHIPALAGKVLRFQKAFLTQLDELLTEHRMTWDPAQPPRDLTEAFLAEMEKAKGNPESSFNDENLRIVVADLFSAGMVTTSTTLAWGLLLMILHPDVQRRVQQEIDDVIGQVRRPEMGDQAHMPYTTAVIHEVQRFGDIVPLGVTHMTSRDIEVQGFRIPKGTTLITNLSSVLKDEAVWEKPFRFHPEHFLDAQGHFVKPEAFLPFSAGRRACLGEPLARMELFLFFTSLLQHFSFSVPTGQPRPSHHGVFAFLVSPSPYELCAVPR

[3] = DRUGMATRIX: Calcium Channel Type L, Phenylalkylamine radioligand binding (ligand: [3H] (-)-Desmethoxyverapamil (D-888)); assay type: cell membranes, Rattus norvegicus, Wistar, Brain, Membrane; settings: Not Active = under 50% inhibition at 10 µM

Nn1nnc2ccccc21
Not Active: IC50 [1] | IC50 (D(4) dopamine receptor) | IC50 (Endothelin-1 receptor) | IC50 [2] | Ki [2] | IC50 (Melanocortin receptor 4) | IC50 (Carbonic anhydrase 2) | IC50 (Cytochrome P450 2D6) | Ki (Cytochrome P450 2D6) | IC50 [3] | Ki [3]

CC[C@]1(O)CC[C@H]2[C@@H]3CCC4=CCCC[C@@H]4[C@H]3CC[C@@]21C
Not Active: IC50 [1] | IC50 (D(4) dopamine receptor) | IC50 (Endothelin-1 receptor) | IC50 [2] | Ki [2] | IC50 (Melanocortin receptor 4) | IC50 (Carbonic anhydrase 2) | IC50 (Cytochrome P450 2D6) | Ki (Cytochrome P450 2D6) | IC50 [3] | Ki [3]

N[C@@H](Cc1ccc(F)cc1)C(=O)O
Not Active: IC50 [1] | IC50 (D(4) dopamine receptor) | IC50 (Endothelin-1 receptor) | IC50 [2] | Ki [2] | IC50 (Melanocortin receptor 4) | IC50 (Carbonic anhydrase 2) | IC50 [3] | Ki [3]

CCOC(=O)[C@H](CCc1ccccc1)N[C@@H](C)C(=O)N1Cc2ccccc2C[C@H]1C(=O)O
Not Active: IC50 [1] | IC50 (D(4) dopamine receptor) | IC50 (Endothelin-1 receptor) | IC50 [2] | Ki [2] | IC50 (Melanocortin receptor 4) | IC50 (Carbonic anhydrase 2) | IC50 (Cytochrome P450 2D6) | Ki (Cytochrome P450 2D6) | IC50 [3] | Ki [3]

O=C(c1ccccc1Cl)N1CCC(Cc2ccccc2)CC1
Not Active: IC50 [1] | IC50 (D(4) dopamine receptor) | IC50 (Endothelin-1 receptor) | IC50 [2] | Ki [2] | IC50 (Melanocortin receptor 4) | IC50 (Carbonic anhydrase 2) | IC50 (Cytochrome P450 2D6) | Ki (Cytochrome P450 2D6) | IC50 [3] | Ki [3]

CCOC(=O)[C@H](CCc1ccccc1)N[C@@H](C)C(=O)N1CCC[C@H]1C(=O)O
Not Active: IC50 [1] | IC50 (D(4) dopamine receptor) | IC50 (Endothelin-1 receptor) | IC50 [2] | Ki [2] | IC50 (Melanocortin receptor 4) | IC50 (Carbonic anhydrase 2) | IC50 (Cytochrome P450 2D6) | Ki (Cytochrome P450 2D6) | IC50 [3] | Ki [3]

Clc1cc2c(cc1Cl)Oc1cc(Cl)c(Cl)cc1O2 [2,3,7,8-TETRACHLORODIBENZO-P-DIOXIN]
Not Active: IC50 [1] | IC50 (D(4) dopamine receptor) | IC50 (Endothelin-1 receptor) | IC50 [2] | Ki [2] | IC50 (Melanocortin receptor 4) | IC50 (Carbonic anhydrase 2) | IC50 (Cytochrome P450 2D6) | Ki (Cytochrome P450 2D6) | IC50 [3] | Ki [3]

C=C1/C(=C\C=C2/CCC[C@]3(C)[C@@H]([C@H](C)CCCC(C)C)CC[C@@H]23)C[C@@H](O)C[C@@H]1O [ALFACALCIDOL]
Not Active: IC50 [1] | IC50 (D(4) dopamine receptor) | IC50 (Endothelin-1 receptor) | IC50 [2] | Ki [2] | IC50 (Melanocortin receptor 4) | IC50 (Carbonic anhydrase 2) | IC50 (Cytochrome P450 2D6) | Ki (Cytochrome P450 2D6) | IC50 [3] | Ki [3]

CCCCCC[C@H]1C(=O)O[C@H](C)[C@H](NC(=O)c2cccc(NC=O)c2O)C(=O)O[C@@H](C)[C@@H]1OC(=O)CC(C)C [ANTIMYCIN A]
Not Active: IC50 [1] | IC50 (D(4) dopamine receptor) | IC50 (Endothelin-1 receptor) | IC50 [2] | Ki [2] | IC50 (Melanocortin receptor 4) | IC50 (Carbonic anhydrase 2) | IC50 (Cytochrome P450 2D6) | Ki (Cytochrome P450 2D6) | IC50 [3] | Ki [3]

C[C@@H]1CC[C@H]2[C@@H](C)C(=O)O[C@@H]3O[C@@]4(C)CC[C@@H]1[C@]32OO4 [ARTEMISININ]
Not Active: IC50 [1] | IC50 (D(4) dopamine receptor) | IC50 (Endothelin-1 receptor) | IC50 [2] | Ki [2] | IC50 (Melanocortin receptor 4) | IC50 (Carbonic anhydrase 2) | IC50 [3] | Ki [3]

CO[C@H]1[C@@H](O)[C@H](N)[C@@H](O[C@H]2O[C@H]([C@H](C)N)CC[C@H]2N)[C@H](O)[C@@H]1N(C)C(=O)CN [ASTROMICIN]
Not Active: IC50 [1] | IC50 (D(4) dopamine receptor) | IC50 (Endothelin-1 receptor) | IC50 [2] | Ki [2] | IC50 (Melanocortin receptor 4) | IC50 (Carbonic anhydrase 2) | IC50 (Cytochrome P450 2D6) | Ki (Cytochrome P450 2D6) | IC50 [3] | Ki [3]

[N-]=[N+]=CC(=O)OC[C@H](N)C(=O)O [AZASERINE]
Not Active: IC50 [1] | IC50 (D(4) dopamine receptor) | IC50 (Endothelin-1 receptor) | IC50 [2] | Ki [2] | IC50 (Melanocortin receptor 4) | IC50 (Carbonic anhydrase 2) | IC50 (Cytochrome P450 2D6) | Ki (Cytochrome P450 2D6) | IC50 [3] | Ki [3]

CCC[C@@H]1C[C@@H](C(=O)N[C@@H]([C@H]2O[C@H](SC)[C@H](O)[C@@H](O)[C@H]2O)[C@H](C)Cl)N(C)C1 [CLINDAMYCIN]
Not Active: IC50 [1] | IC50 (D(4) dopamine receptor) | IC50 (Endothelin-1 receptor) | IC50 [2] | Ki [2] | IC50 (Melanocortin receptor 4) | IC50 (Carbonic anhydrase 2) | IC50 [3] | Ki [3]

CN1C(=O)CN=C(c2ccccc2)c2cc(Cl)ccc21 [DIAZEPAM]
Not Active: IC50 [1] | IC50 (D(4) dopamine receptor) | IC50 (Endothelin-1 receptor) | IC50 [2] | Ki [2] | IC50 (Melanocortin receptor 4) | IC50 (Carbonic anhydrase 2) | IC50 [3] | Ki [3]

CN1C[C@H](C(=O)N[C@]2(C)O[C@@]3(O)[C@@H]4CCCN4C(=O)[C@H](Cc4ccccc4)N3C2=O)C[C@@H]2c3cccc4[nH]cc(c34)C[C@H]21 [DIHYDROERGOTAMINE]
Not Active: IC50 [1] | IC50 (D(4) dopamine receptor) | IC50 (Endothelin-1 receptor) | IC50 [2] | Ki [2] | IC50 (Melanocortin receptor 4) | IC50 (Carbonic anhydrase 2) | IC50 (Cytochrome P450 2D6) | Ki (Cytochrome P450 2D6)

CCOC(=O)C1=C(C)NC(C)=C(C(=O)OC)C1c1cccc(Cl)c1Cl (centres undefined) [FELODIPINE]
Not Active: IC50 [1] | IC50 (D(4) dopamine receptor) | IC50 (Endothelin-1 receptor) | IC50 [2] | Ki [2] | IC50 (Melanocortin receptor 4) | IC50 (Carbonic anhydrase 2) | IC50 [3] | Ki [3]

Cc1cn[nH]c1 [FOMEPIZOLE]
Not Active: IC50 [1] | IC50 (D(4) dopamine receptor) | IC50 (Endothelin-1 receptor) | IC50 [2] | Ki [2] | IC50 (Melanocortin receptor 4) | IC50 (Carbonic anhydrase 2) | IC50 [3] | Ki [3]

Cc1cnc(C(=O)NCCc2ccc(S(=O)(=O)NC(=O)NC3CCCCC3)cc2)cn1 [GLIPIZIDE]
Not Active: IC50 [1] | IC50 (D(4) dopamine receptor) | IC50 (Endothelin-1 receptor) | IC50 [2] | Ki [2] | IC50 (Melanocortin receptor 4) | IC50 (Carbonic anhydrase 2) | IC50 [3] | Ki [3]

COc1ccccc1OCC(O)CO (centres undefined) [GUAIFENESIN]
Not Active: IC50 [1] | IC50 (D(4) dopamine receptor) | IC50 (Endothelin-1 receptor) | IC50 [2] | Ki [2] | IC50 (Melanocortin receptor 4) | IC50 (Carbonic anhydrase 2) | IC50 [3] | Ki [3]

C/C=C\c1ccc(O)c(OC)c1 [ISOEUGENOL]
Not Active: IC50 [1] | IC50 (D(4) dopamine receptor) | IC50 (Endothelin-1 receptor) | IC50 [2] | Ki [2] | IC50 (Melanocortin receptor 4) | IC50 (Carbonic anhydrase 2) | IC50 [3] | Ki [3]

OCCN1CCN(CCCN2c3ccccc3Sc3ccc(Cl)cc32)CC1 [PERPHENAZINE]
Not Active: IC50 [1] | IC50 (D(4) dopamine receptor) | IC50 (Endothelin-1 receptor) | IC50 [2] | Ki [2] | IC50 (Melanocortin receptor 4) | IC50 (Carbonic anhydrase 2) | IC50 [3] | Ki [3]
